One substance from patent US20040121941A1, “Novel inhibitors of prenylated pyrophosphate consuming enzymes” (priority 1999, published 2004) can be followed below.

This test has as its target T1, protein:geranylgeranyl transferase-1 (PGGT-1) (Bos taurus, UniProt Q5EAD5).
T1 construct: A crude PGGT-1 preparation was isolated from bovine brain; from tissue; host or cells: bovine brain
The test can be described thus: Protein:geranylgeranyl transferase-1 (PGGT-1) activity assay, [3H]-GGPP and sepharose-coupled peptide pepCsep. The format is biochemical. The note with it: PGGT activity in % of control (without analogue), bovine brain enzyme, Table I. On the procedure:
PFT activity was determined using a C-terminal peptide of pre-p21^N-ras coupled to sepharose beads as substrate (pepAsep) as described previously (Cohen et al. Biochem. Pharmacol. 57 (1999), 365-373). The experimental conditions (25 μL reaction mixture) were as follows: 80 pmol/25 μL sepharose-coupled peptide, 0.7 μM of [^3H]-FPP (American Radiolabeled Chemicals Inc.; specific radioactivity 15 Ci/mmol) and 13 μL of rat brain enzyme preparation. Incubation was performed at 37° C. for 30 min. For the determination of IC50 values of the FPP analogues, the assay was performed three times in the presence of different concentrations of compound 5 (example 1) in duplicate. Determination of PGGT-1 activity was performed in a similar manner as described for PFT activity and has also been described previously (Cohen et al. Biochem. Pharmacol. 57 (1999), 365-373). […] The experimental conditions were as follows: 25 μL incubation mixture contained 2.5 μL (1 nmol) pepCsep, 1 μM [^3H]-GGPP (American Radiolabeled Chemicals Inc.; specific radioactivity 15 Ci/mmol), 3 μL of bovine brain enzyme preparation, 50 μM ZnCl2, 0.5 mM MgCl2, 1 mM dithiothreitol, 0.004% Triton X-100, 50 mM Tris-HCl (pH 7.4). […]
The radioactivity bound to the sepharose was strongly dependent on the presence of the cysteine residue in pepCsep and the reaction was linear up to 40 min and up to 5 μL of the enzyme preparation. […]

“[Bis(benzyloxycarbonyl)lysyl]-[ε-aminocaproyl]-[β-(nitrophenylaminocarbonyl)-β-alanyl]-[phosphoserine] [compound 378]”: the “relative activity at 10 μM” value (compound at 10 μM) stood at 36 ± 9%. The “relative activity at 100 μM” value (compound at 100 μM) was 28 ± 5%.
